# Source: article PMC9819389, “Antiandrogenic and Estrogenic Activity Evaluation of Oxygenated and Nitrated Polycyclic Aromatic Hydrocarbons Using Chemically Activated Luciferase Expression Assays” (International Journal of Environmental Research and Public …, 2022)
# Where two headings read alike, the source gives them in different places.
# What was measured:
# human AR [1] = target: T1, human AR (Homo sapiens, UniProt P10275); experiment: AR-CALUX assay, antiandrogenic (AR antagonistic) activity, U2OS-luc cells; assay type: cell-based; set-up: host or cells: human U2OS-luc (osteoblastic osteosarcoma) cells; conditions: for IC25 / REPmol (IC25): present study; for IC25: 24 h exposure with 100 pM DHT (EC50 level); for REPmol (IC25): molar relative potency to flutamide, IC25-based; for IC50: read-out: IC50; for inhibition of AR-mediated luciferase activity: coexposure to DHT at 10 nM (100 × EC50); for mode of AR inhibition: from coexposure to 10 nM DHT
# T1 sequence (P10275 1-920): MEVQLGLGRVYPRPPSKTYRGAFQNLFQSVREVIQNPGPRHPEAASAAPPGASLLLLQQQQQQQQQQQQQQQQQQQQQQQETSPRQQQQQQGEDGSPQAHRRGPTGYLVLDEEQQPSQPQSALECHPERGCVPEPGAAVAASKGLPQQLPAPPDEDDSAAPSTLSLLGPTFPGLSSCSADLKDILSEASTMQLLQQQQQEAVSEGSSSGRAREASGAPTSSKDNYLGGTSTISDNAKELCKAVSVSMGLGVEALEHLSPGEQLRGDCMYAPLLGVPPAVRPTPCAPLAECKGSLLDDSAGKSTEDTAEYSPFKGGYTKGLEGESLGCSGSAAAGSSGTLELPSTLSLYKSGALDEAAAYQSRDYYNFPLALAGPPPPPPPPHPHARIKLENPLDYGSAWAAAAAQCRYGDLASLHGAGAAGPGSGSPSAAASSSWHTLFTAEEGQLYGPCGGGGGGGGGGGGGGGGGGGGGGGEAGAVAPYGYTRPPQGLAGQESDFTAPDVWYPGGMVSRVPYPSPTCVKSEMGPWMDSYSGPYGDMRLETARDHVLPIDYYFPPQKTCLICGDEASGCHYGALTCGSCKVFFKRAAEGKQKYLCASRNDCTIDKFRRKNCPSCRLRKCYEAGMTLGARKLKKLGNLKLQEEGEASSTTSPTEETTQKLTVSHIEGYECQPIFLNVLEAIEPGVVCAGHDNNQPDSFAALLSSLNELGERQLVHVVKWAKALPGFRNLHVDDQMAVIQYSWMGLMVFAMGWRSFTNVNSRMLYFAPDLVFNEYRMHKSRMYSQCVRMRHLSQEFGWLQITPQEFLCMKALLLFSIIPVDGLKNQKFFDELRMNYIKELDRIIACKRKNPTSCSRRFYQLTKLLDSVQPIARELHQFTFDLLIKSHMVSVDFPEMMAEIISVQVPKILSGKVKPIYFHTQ
# Description: (§1) The AR- and ER-CALUX assays for the polycyclic aromatic compounds were evaluated according to previously described methods, which used human U2OS-luc cells developed by BioDetection Systems b.v. (Amsterdam, The Netherlands). The cells are transfected stably with human AR and ER, respectively, and a luciferase reporter gene under their respective steroid receptor response elements. […] They were incubated at 37 °C in a humidified atmosphere containing 5% carbon dioxide. […] The medium was then removed, and the cells were lysed. A solution of luciferin was then added, and the luminescence intensity was measured with an ARVO™ X3 luminometer from PerkinElmer (Waltham, MA, USA). A sigmoid dose–response curve for a chemical was fitted to the Hill equation given by Equation (1) using SigmaPlot 11.0 from Systat Software Inc. (San Jose, CA, USA). y = min + (max − min)/(1 + (a1/x)^a^2)(1) where, y and x are the measured luciferase induction level and compound concentration, respectively. […] The REP values in mol base were obtained by dividing the ICs or ECs of the standard by the ICs or ECs of target compound, respectively.
# (§2) All measurements were conducted in triplicate wells. They were repeated twice and trice in the AR- and ER-CALUX assays, respectively, for each concentration in dose–response curve. […] Cell viability was confirmed using 3-(4,5-dimethylthiazol-2-yl)-2,5-diphenyltetrazolium bromide (MTT) assay. If the cell viability was <80% in the positive control, the corresponding exposure dose was considered cytotoxic and excluded from the calculation.
# human ER [2] = target: T2, human ER (Homo sapiens, UniProt P03372); experiment: ER-CALUX assay, estrogenic activity, U2OS-luc cells; assay type: cell-based; set-up: host or cells: human U2OS-luc (osteoblastic osteosarcoma) cells; conditions: for EC50 / REPmol (EC50): present study; for EC50: 24 h exposure; for REPmol (EC50): molar relative potency to E2, EC50-based
# T2 sequence (P03372 1-595): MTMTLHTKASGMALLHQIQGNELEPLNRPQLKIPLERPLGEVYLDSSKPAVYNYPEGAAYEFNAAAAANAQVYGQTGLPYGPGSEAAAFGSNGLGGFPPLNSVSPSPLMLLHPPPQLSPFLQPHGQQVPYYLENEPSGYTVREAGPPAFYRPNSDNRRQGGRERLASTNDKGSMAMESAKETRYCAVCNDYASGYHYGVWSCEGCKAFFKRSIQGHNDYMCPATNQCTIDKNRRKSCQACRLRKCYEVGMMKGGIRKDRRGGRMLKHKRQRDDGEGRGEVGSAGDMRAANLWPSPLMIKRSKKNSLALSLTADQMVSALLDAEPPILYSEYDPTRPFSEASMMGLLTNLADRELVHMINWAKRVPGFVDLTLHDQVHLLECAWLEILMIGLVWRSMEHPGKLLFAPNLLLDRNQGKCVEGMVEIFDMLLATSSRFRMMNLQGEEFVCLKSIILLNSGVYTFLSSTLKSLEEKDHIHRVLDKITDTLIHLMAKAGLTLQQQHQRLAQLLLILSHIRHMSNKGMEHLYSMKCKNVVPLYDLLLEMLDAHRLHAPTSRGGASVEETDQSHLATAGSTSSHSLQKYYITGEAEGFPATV
# human AR [3] = target: T1, human AR; set-up: method as in Otsuki et al. [38]; key: +, positive; conditions: previous study; ref Otsuki et al. [38]; cited from earlier work
# U2OS-luc cells = experiment: MTT cell viability (cytotoxicity) assay; conditions: cell viability <80% considered cytotoxic
# Description: as §2
# thyroid receptor (TR) α = tested on: thyroid receptor (TR) α; set-up: method as in PMID 31071665; conditions: TRα activation; cited from earlier work
# human AR [4] = target: T1, human AR; experiment: AR-CALUX assay, androgenic (agonistic) activity; assay type: cell-based; set-up: host or cells: human U2OS-luc (osteoblastic osteosarcoma) cells; conditions: data not shown
# Description: as §1
# human ER [5] = target: T2, human ER; set-up: method as in Machala et al. [36]; conditions: previous study; relative to E2; ref Machala et al. [36]; cited from earlier work
# ER [6] = conditions: previous study; relative to E2; ref Šimečková et al. [44]; cited from earlier work
# AR [7] = tested on: AR; set-up: method as in Okamura et al. [22]; key: +, positive; conditions: previous study; ref Okamura et al. [22]; cited from earlier work
# ER [8] = tested on: ER; set-up: method as in Pieterse et al. [30]; conditions: previous study; relative to E2; ref Pieterse et al. [30]; cited from earlier work
# AR [9] = conditions: previous study, relative to flutamide, cited from earlier work
# ER [10] = tested on: ER; set-up: method as in Boonen et al. [33]; conditions: previous study; relative to E2; ref Boonen et al. [33]; cited from earlier work
smiles,measurement,setting,value
"O=[N+]([O-])c1ccc2ccc3c([N+](=O)[O-])ccc4ccc1c2c43 [1,6-DNPy, 1,6-dinitropyrene]",inhibition at 0.1 µM,"human AR [1]; at 0.1 μM (100 nM), maximum soluble concentration, read-out: inhibition of AR activation",> 20%
same,EC50,human ER [2],U (key: U: < 10% response of 1 nM E2; nd: not detected)
same,REPmol (EC50),human ER [2],U (key: U: < 10% response of 1 nM E2; nd: not detected)
same,"antiandrogenic activity, Yeast",human AR [3],+
"O=[N+]([O-])c1ccc2ccc3cccc4ccc1c2c34 [1-NPy, 1-nitropyrene]",IC25,human AR [1],0.094 µM
same,REPmol (IC25),human AR [1],1.4
same,IC50,human AR [1],220 nM
same,activation (level of the response to 1 nM E2),human ER [2]; at 10 μM,14% activation at 10 μM
same,"antiandrogenic activity, Yeast",human AR [3],+
"O=C1c2ccccc2-c2ccc([N+](=O)[O-])c3cccc1c23 [3-NBAO, 3-nitro-7H-benz[de]anthracen-7-one]",concentration at which cytotoxicity was confirmed,U2OS-luc cells,1 µM
same,inhibition of AR-mediated luciferase activity,human AR [1]; compound at 30 nM,29%
same,inhibition of AR-mediated luciferase activity,human AR [1]; compound at 300 nM,60%
same,mode of AR inhibition,human AR [1],noncompetitive
same,IC25,human AR [1],0.0051 µM
same,REPmol (IC25),human AR [1],23
same,IC50,human AR [1],18 nM
same,REP50 to triiodothyronine (T3),thyroid receptor (TR) α,0.11
same,"antiandrogenic activity, Yeast",human AR [3],+
"O=[N+]([O-])c1ccc2c3c(cccc13)-c1ccccc1-2 [3-NFA, 3-nitrofluoranthene]",concentration at which weak androgenic activity was observed,human AR [4],≥ 1 µM
same,"maximum androgenic induction, relative to the EC50 level of DHT",human AR [4],< 16%
same,Emax,"human AR [4]; read-out: maximum androgenic induction, level of maximum response of DHT exposure (10 nM)",< 8%
same,concentration above which inhibition of AR-mediated luciferase activity is attenuated (U-shaped curve),human AR [1],> 300 nM
same,attenuation of antiandrogenic activity,human AR [1]; at high concentrations compared to at 100 nM,approximately 40%
same,inhibition of AR-mediated luciferase activity,human AR [1]; compound at 100 nM,26%
same,inhibition of AR-mediated luciferase activity,human AR [1]; compound at 10 μM,82%
same,mode of AR inhibition,human AR [1],noncompetitive
same,IC25,human AR [1],0.0053 µM
same,REPmol (IC25),human AR [1],32
same,IC50,human AR [1],14 nM
same,concentration above which AR-mediated luciferase activity increases (U-shaped curve),human AR [1]; table entry,increase at > 0.3 μM
same,EC50,human ER [2],U (< 10% response of 1 nM E2)
same,REPmol (EC50),human ER [2],U (< 10% response of 1 nM E2)
same,"antiandrogenic activity, Yeast",human AR [3],+
"O=C1c2ccccc2C(=O)c2c1ccc1ccccc21 [BAQ, 7,12-benz[a]anthracenequinone]",IC25,human AR [1],2.5 µM
same,REPmol (IC25),human AR [1],0.056
same,IC50,human AR [1],6400 nM
same,"REPmol, MVLN",human ER [5],1.4 × 10^−6
"c1ccc2cc3c(ccc4ccccc43)cc2c1 [B[a]A, benz[a]anthracene]","REPmol, T47D",ER [6],1.6 × 10^−6
same,"antiandrogenic activity, PC3",AR [7],+
same,"REPmol, U2OS",ER [8],<2 × 10^−9
same,"REPmol, U2OS",AR [9]; ref Alvarez-Muñoz et al. [28],1.3
same,"REPmol, U2OS",AR [9]; ref Marin-Kuan et al. [29],0.4
same,"REPmol, MVLN",human ER [5],7.9 × 10^−7
"c1ccc2c(c1)cc1ccc3cccc4ccc2c1c34 [B[a]P, benzo[a]pyrene]","REPmol, T47D",ER [6],3.1 × 10^−6
same,"antiandrogenic activity, PC3",AR [7],+
same,"REPmol, U2OS",ER [8],2 × 10^−6
same,"REPmol, U2OS",AR [9]; ref Marin-Kuan et al. [29],0.4
same,"REPmol, U2OS",AR [9]; ref Pieterse et al. [30],0.1
same,"REPmol, VM7",ER [10],5.3 × 10^−6
"C[C@]12CC[C@@H]3c4ccc(O)cc4CC[C@H]3[C@@H]1CC[C@@H]2O [E2, 17β-estradiol, reference compound]","REPmol, T47D",ER [6],1
same,"REPmol, U2OS",ER [8],1
same,"REPmol, VM7",ER [10],1
"O=C1C(=O)c2ccccc2-c2ccccc21 [PhQ, phenanthrenequinone]",concentration at which cytotoxicity was confirmed,U2OS-luc cells,1 µM
same,IC25,human AR [1],0.18 µM
same,REPmol (IC25),human AR [1],0.63
same,IC50,human AR [1],390 nM
"c1cc2ccc3cccc4ccc(c1)c2c34 [Py, pyrene]","REPmol, T47D",ER [6],5.3 × 10^−7
same,"antiandrogenic activity, PC3",AR [7],+
same,"REPmol, U2OS",AR [9]; ref Alvarez-Muñoz et al. [28],0.41
same,"REPmol, U2OS",AR [9]; ref Pieterse et al. [30],0.03
